From BigSolDB 2.1

COc1ccc(OC)c(N)c1
Settings | solubility (mole fraction)
in 1-methoxy-2-propanol, 276.6 K | 0.0204
in 1-methoxy-2-propanol, 279.7 K | 0.0255
in 1-methoxy-2-propanol, 282.8 K | 0.0306
in 1-methoxy-2-propanol, 285.9 K | 0.0382
in 1-methoxy-2-propanol, 289 K | 0.0512
in 1-methoxy-2-propanol, 292.1 K | 0.0675
in 1-methoxy-2-propanol, 295.2 K | 0.0867
in 1-methoxy-2-propanol, 298.3 K | 0.11
in 1-methoxy-2-propanol, 301.6 K | 0.14
in 1-methoxy-2-propanol, 305.1 K | 0.174
in 1-methoxy-2-propanol, 310.4 K | 0.211
in 1-methoxy-2-propanol, 314.7 K | 0.239
in 1-methoxy-2-propanol, 318.8 K | 0.281
in 1-methoxy-2-propanol, 322.9 K | 0.323
in 2-ethoxyethanol, 276.7 K | 0.0186
in 2-ethoxyethanol, 279.8 K | 0.0238
in 2-ethoxyethanol, 282.9 K | 0.029
in 2-ethoxyethanol, 286 K | 0.0369
in 2-ethoxyethanol, 289.1 K | 0.0481
in 2-ethoxyethanol, 292.2 K | 0.0635
in 2-ethoxyethanol, 295.3 K | 0.0834
in 2-ethoxyethanol, 298.4 K | 0.106
in 2-ethoxyethanol, 301.6 K | 0.135
in 2-ethoxyethanol, 304.7 K | 0.165
in 2-ethoxyethanol, 308.9 K | 0.199
in 2-ethoxyethanol, 313 K | 0.231
in 2-ethoxyethanol, 317.1 K | 0.262
in 2-ethoxyethanol, 321.4 K | 0.311
in 2-ethoxyethanol, 325.5 K | 0.371
in 2-methoxyethanol, 276.4 K | 0.0331
in 2-methoxyethanol, 280.5 K | 0.046
in 2-methoxyethanol, 284.6 K | 0.0617
in 2-methoxyethanol, 288.7 K | 0.0819
in 2-methoxyethanol, 292.8 K | 0.102
in 2-methoxyethanol, 296.9 K | 0.123
in 2-methoxyethanol, 301 K | 0.15
in 2-methoxyethanol, 305.1 K | 0.185
in 2-methoxyethanol, 309.2 K | 0.217
in 2-methoxyethanol, 313.4 K | 0.254
in 2-methoxyethanol, 316.6 K | 0.292
in diethylene glycol, 276.7 K | 0.00015
in diethylene glycol, 280.9 K | 0.000379
in diethylene glycol, 285 K | 0.000611
in diethylene glycol, 289.1 K | 0.000885
in diethylene glycol, 293.2 K | 0.00119
in diethylene glycol, 297.3 K | 0.00165
in diethylene glycol, 301.4 K | 0.00325
in diethylene glycol, 303.5 K | 0.00532
in diethylene glycol, 305.6 K | 0.00751
in diethylene glycol, 307.7 K | 0.015
in diethylene glycol, 309.8 K | 0.0248
in diethylene glycol, 311.9 K | 0.0458
in diethylene glycol, 314 K | 0.0704
in diethylene glycol, 316.1 K | 0.104
in diethylene glycol, 318.2 K | 0.14
in diethylene glycol, 320.7 K | 0.177
in diethylene glycol, 323.7 K | 0.216

COc1cc([N+](=O)[O-])c(OC)cc1Cl
Settings | solubility (mole fraction)
in 1-methoxy-2-propanol, 282.2 K | 0.00313
in 1-methoxy-2-propanol, 287.1 K | 0.00354
in 1-methoxy-2-propanol, 291.6 K | 0.00392
in 1-methoxy-2-propanol, 296 K | 0.00428
in 1-methoxy-2-propanol, 300.3 K | 0.00466
in 1-methoxy-2-propanol, 304.6 K | 0.00648
in 1-methoxy-2-propanol, 309 K | 0.00937
in 1-methoxy-2-propanol, 313.1 K | 0.0123
in 1-methoxy-2-propanol, 317.2 K | 0.0154
in 1-methoxy-2-propanol, 321.3 K | 0.0191
in 1-methoxy-2-propanol, 325.7 K | 0.0258
in 2-ethoxyethanol, 276.7 K | 0.00187
in 2-ethoxyethanol, 280.8 K | 0.00226
in 2-ethoxyethanol, 284.9 K | 0.00266
in 2-ethoxyethanol, 289.1 K | 0.00307
in 2-ethoxyethanol, 293.2 K | 0.00347
in 2-ethoxyethanol, 297.3 K | 0.00389
in 2-ethoxyethanol, 301.4 K | 0.00502
in 2-ethoxyethanol, 305.5 K | 0.00638
in 2-ethoxyethanol, 309.6 K | 0.00874
in 2-ethoxyethanol, 314 K | 0.0139
in 2-ethoxyethanol, 320.6 K | 0.0193
in 2-ethoxyethanol, 327.1 K | 0.0237
in 2-methoxyethanol, 283.2 K | 0.00622
in 2-methoxyethanol, 290.9 K | 0.00838
in 2-methoxyethanol, 295.3 K | 0.00953
in 2-methoxyethanol, 299.4 K | 0.0107
in 2-methoxyethanol, 303.1 K | 0.0119
in 2-methoxyethanol, 306.8 K | 0.0146
in 2-methoxyethanol, 313 K | 0.0177
in 2-methoxyethanol, 317.9 K | 0.0201
in 2-methoxyethanol, 321.7 K | 0.0226
in 2-methoxyethanol, 325.8 K | 0.0282
in 2-methoxyethanol, 329.8 K | 0.0335
in diethylene glycol, 282.1 K | 0.000239
in diethylene glycol, 286.5 K | 0.000275
in diethylene glycol, 290.8 K | 0.000321
in diethylene glycol, 296.1 K | 0.000364
in diethylene glycol, 301.6 K | 0.000402
in diethylene glycol, 306.2 K | 0.00048
in diethylene glycol, 310.7 K | 0.000573
in diethylene glycol, 315.2 K | 0.000717
in diethylene glycol, 319.5 K | 0.000876
in diethylene glycol, 323.6 K | 0.00109
in diethylene glycol, 327.7 K | 0.00136

COc1cc(Cl)c(OC)cc1N
Settings | solubility (mole fraction)
in 1-methoxy-2-propanol, 277.4 K | 0.0208
in 1-methoxy-2-propanol, 281.6 K | 0.0267
in 1-methoxy-2-propanol, 289.4 K | 0.0327
in 1-methoxy-2-propanol, 294.3 K | 0.0369
in 1-methoxy-2-propanol, 298.5 K | 0.045
in 1-methoxy-2-propanol, 302.6 K | 0.0536
in 1-methoxy-2-propanol, 307.6 K | 0.0649
in 1-methoxy-2-propanol, 312.6 K | 0.0772
in 1-methoxy-2-propanol, 316.8 K | 0.089
in 1-methoxy-2-propanol, 320.9 K | 0.101
in 1-methoxy-2-propanol, 326.3 K | 0.125
in 2-ethoxyethanol, 278.6 K | 0.0282
in 2-ethoxyethanol, 283.5 K | 0.0322
in 2-ethoxyethanol, 287.6 K | 0.0361
in 2-ethoxyethanol, 291.7 K | 0.04
in 2-ethoxyethanol, 295.8 K | 0.0453
in 2-ethoxyethanol, 300.3 K | 0.0559
in 2-ethoxyethanol, 306.7 K | 0.0672
in 2-ethoxyethanol, 310.9 K | 0.0785
in 2-ethoxyethanol, 315 K | 0.0894
in 2-ethoxyethanol, 319.7 K | 0.1
in 2-ethoxyethanol, 323.9 K | 0.117
in 2-ethoxyethanol, 328 K | 0.138
in 2-methoxyethanol, 277.2 K | 0.0282
in 2-methoxyethanol, 281.1 K | 0.034
in 2-methoxyethanol, 285.5 K | 0.0427
in 2-methoxyethanol, 291.2 K | 0.0497
in 2-methoxyethanol, 295.3 K | 0.0549
in 2-methoxyethanol, 299.4 K | 0.06
in 2-methoxyethanol, 303.6 K | 0.0665
in 2-methoxyethanol, 307.7 K | 0.0768
in 2-methoxyethanol, 312.1 K | 0.0884
in 2-methoxyethanol, 315.7 K | 0.0986
in 2-methoxyethanol, 319.6 K | 0.112
in 2-methoxyethanol, 324.2 K | 0.129
in diethylene glycol, 276.7 K | 0.0167
in diethylene glycol, 280.9 K | 0.0188
in diethylene glycol, 285.1 K | 0.021
in diethylene glycol, 289.4 K | 0.0233
in diethylene glycol, 295.5 K | 0.0279
in diethylene glycol, 299.6 K | 0.0312
in diethylene glycol, 303.8 K | 0.0346
in diethylene glycol, 307.9 K | 0.0396
in diethylene glycol, 312 K | 0.0447
in diethylene glycol, 316.5 K | 0.0512
in diethylene glycol, 320.8 K | 0.0584
in diethylene glycol, 325.3 K | 0.0675
